Results taken from PMC5318888, “SAMHD1 enhances nucleoside-analogue efficacy against HIV-1 in myeloid cells” (Scientific Reports, 2017).

Key:
Type in all cases: cell-based
HIV-1-GFP [1] = assay: microbe, parasite or virus in culture
Procedure: H9 and Jurkat cells (6 × 10^5 cells/mL) were treated with increasing concentrations of nucleoside analogues (0–200 μM; except CFB, 0–1.6 μM) and incubated for 4 h at 37 °C in 5% CO2. Cells were then infected with HIV-1-GFP by spinoculation at 800 × g for 90 min in the presence of 1 μg/mL polybrene, and further incubated at 37 °C in 5% CO2 for 72 h. Undifferentiated U937 and THP-1 (PMA^−) cells (6 × 10^5 cells/mL) were treated with increasing concentrations of nucleoside analogues (0–200 μM; except CFB, 0–1.6 μM) and incubated at 37 °C in 5% CO2 for 48 h. Cells were then infected with HIV-1-GFP by spinoculation at 800 × g for 90 min in the presence of 1 μg/mL polybrene, and further incubated at 37 °C in 5% CO2 for 72 h. Non-dividing U937 and THP-1 (PMA^+) cells (6 × 10^5 cells/mL) were differentiated by addition of 100 nM PMA (PMA^+) for 48 h and treated with increasing concentrations of nucleoside analogues as described above. Cells were then infected with HIV-1-GFP in the presence of 1 μg/mL polybrene and further incubated at 37 °C in 5% CO2 for 72 h. The percentage of GFP^+cells was determined by one-colour flow cytometry using a Fortessa X20 analyser (BD Biosciences) and the data analysed using the FlowJo software suite.
(§1) Non-ambiguous values were subjected to a replicate test to calculate confidence intervals of 95% (95% CI). CC50 and EC50 values were determined for at least two independent experiments for each nucleoside analogue and a selectivity index (SI) also calculated, (SI = CC50/EC50). EC50 values for each replicate were used to perform an unpaired two-tailed t-test to determine significant differences between U937 cells expressing SAMHD1 wt or HD206-7AA mutant and THP-1 cells expressing Vpx or untransduced cells. P values of <0.005 were considered statistically significant.

HIV-1-GFP [2] = assay: Anti-HIV-1 activity in U937 cells transduced with wt SAMHD1 or HD206-7AA mutant; settings: for EC50 [95% CI]: U937 PMA−
Procedure: (§2) Antiviral assays were further performed in monocytoid cells transduced with YFP-expressing VLPs containing WT SAMHD1, HD206-7AA or Vpx. Briefly, U937 cells (6 × 10^5 cells/mL) were transduced with WT SAMHD1-YFP or HD206-7AA-YFP VLPs by spinoculation at 800 × g for 90 min in the presence of 1 μg/mL polybrene. Similarly, THP-1 cells (6 × 10^5 cells/mL) were transduced with Vpx-YFP VLPs by spinoculation at 800 × g for 90 min in the presence of 1 μg/mL polybrene. Cells were incubated at 37 °C in 5% CO2 and after 72 h, PMA^+ cells (6 × 10^5 cells/mL) were treated with 100 nM PMA and PMA^− cells (7.5 × 10^4 cells/mL) were left untreated. Cells were then incubated at 37 °C in 5% CO2 for 48 h. Nucleoside analogues were added at increasing concentrations (0–200 μM; except CFB, 0–1.6 μM) and cells were further incubated for 48 h. PMA^− cells were then infected with HIV-1-GFP by spinoculation at 800 × g for 90 min in the presence of 1 μg/mL polybrene, PMA^+ cells were infected with HIV-1-GFP in the presence of 1 μg/mL polybrene only. Cells were incubated for 72 h at 37 °C in 5% CO2 and then analysed by two-colour flow cytometry using a Fortessa X20 analyser (BD Biosciences). Data were analysed using the FlowJo software suite.
as §1, with “The cytotoxic concentration of nucleoside analogue that inhibits cell viability by 50% (CC50) and the effective concentration of nucleoside analogue that inhibits infection of cells by 50% (EC50) were calculated for each independent experiment by non-linear regression using GraphPad Prism v6.00 for Windows (GraphPad Software, San Diego, CA). Non-ambiguous” for “Non-ambiguous”

HIV-1-GFP [3] = assay: Anti-HIV-1 activity in THP-1 cells with or without Vpx transduction; settings: for Fold (EC50 Vpx+ vs Vpx−): THP1 PMA+
Procedure: as §2
as §1, with “The cytotoxic concentration of nucleoside analogue that inhibits cell viability by 50% (CC50) and the effective concentration of nucleoside analogue that inhibits infection of cells by 50% (EC50) were calculated for each independent experiment by non-linear regression using GraphPad Prism v6.00 for Windows (GraphPad Software, San Diego, CA). Non-ambiguous” for “Non-ambiguous”

[4] = Cytotoxicity, live cells by flow cytometry, H9 cells; settings: human
Procedure: (§3) H9, Jurkat and undifferentiated U937 and THP-1 (PMA^−) cells (6 × 10^5 cells/mL) were treated with increasing concentrations of nucleoside analogues (0–200 μM; except CFB, 0–1.6 μM) and incubated at 37 °C in 5% CO2 for 48 h. Medium was then replaced and cells were further incubated for 72 h. Non-dividing U937 and THP-1 (PMA^+) cells (6 × 10^5 cells/mL) were differentiated by addition of 100 nM phorbol-12-myristate-13-acetate (PMA^+) for 48 h and then treated with increasing concentrations of nucleoside analogues as described above. The percentage of live cells was determined by flow cytometry using Live/Dead fixable blue-fluorescent dyes (Invitrogen) and a Fortessa X20 analyser (BD Biosciences). Data were analysed using the FlowJo software suite.
as §1, with “The cytotoxic concentration of nucleoside analogue that inhibits cell viability by 50% (CC50) and the effective concentration of nucleoside analogue that inhibits infection of cells by 50% (EC50) were calculated for each independent experiment by non-linear regression using GraphPad Prism v6.00 for Windows (GraphPad Software, San Diego, CA). Non-ambiguous” for “Non-ambiguous”

[5] = Cytotoxicity, live cells by flow cytometry, Jurkat cells; settings: human
Procedure: as §3
as §1, with “The cytotoxic concentration of nucleoside analogue that inhibits cell viability by 50% (CC50) and the effective concentration of nucleoside analogue that inhibits infection of cells by 50% (EC50) were calculated for each independent experiment by non-linear regression using GraphPad Prism v6.00 for Windows (GraphPad Software, San Diego, CA). Non-ambiguous” for “Non-ambiguous”

[6] = Cytotoxicity, live cells by flow cytometry, U937 cells (PMA−/PMA+); settings: human
Procedure: as §3
as §1, with “The cytotoxic concentration of nucleoside analogue that inhibits cell viability by 50% (CC50) and the effective concentration of nucleoside analogue that inhibits infection of cells by 50% (EC50) were calculated for each independent experiment by non-linear regression using GraphPad Prism v6.00 for Windows (GraphPad Software, San Diego, CA). Non-ambiguous” for “Non-ambiguous”

U937 cells = assay: as above; settings: human, 48 h
Procedure: as §3
as §1, with “The cytotoxic concentration of nucleoside analogue that inhibits cell viability by 50% (CC50) and the effective concentration of nucleoside analogue that inhibits infection of cells by 50% (EC50) were calculated for each independent experiment by non-linear regression using GraphPad Prism v6.00 for Windows (GraphPad Software, San Diego, CA). Non-ambiguous” for “Non-ambiguous”

[7] = Cytotoxicity, live cells by flow cytometry, THP-1 cells (PMA−/PMA+); settings: human
Procedure: as §3
as §1, with “The cytotoxic concentration of nucleoside analogue that inhibits cell viability by 50% (CC50) and the effective concentration of nucleoside analogue that inhibits infection of cells by 50% (EC50) were calculated for each independent experiment by non-linear regression using GraphPad Prism v6.00 for Windows (GraphPad Software, San Diego, CA). Non-ambiguous” for “Non-ambiguous”

THP-1 cells = assay: as above; settings: human, 48 h
Procedure: as §3
as §1, with “The cytotoxic concentration of nucleoside analogue that inhibits cell viability by 50% (CC50) and the effective concentration of nucleoside analogue that inhibits infection of cells by 50% (EC50) were calculated for each independent experiment by non-linear regression using GraphPad Prism v6.00 for Windows (GraphPad Software, San Diego, CA). Non-ambiguous” for “Non-ambiguous”

[8] = Human immunodeficiency virus 1, THP-1, read-out: EC50 [95% CI], THP1 PMA+
[9] = Human immunodeficiency virus 1, THP-1, read-out: EC50 [95% CI], THP1 PMA−
[10] = Human immunodeficiency virus 1, U-937, read-out: EC50 [95% CI], U937 PMA+
[11] = Human immunodeficiency virus 1, U-937, read-out: EC50 [95% CI], U937 PMA−
[12] = Human immunodeficiency virus 1, U-937, read-out: EC50 [95% CI], U937 PMA+, HD206/7AA+ population
[13] = Human immunodeficiency virus 1, U-937, read-out: EC50 [95% CI], U937 PMA+, SAMHD1+ population
[14] = Human immunodeficiency virus 1, U-937, read-out: EC50 [95% CI], U937 PMA−, HD206/7AA+ population
[15] = Human immunodeficiency virus 1, U-937, read-out: EC50 [95% CI], U937 PMA−, SAMHD1+ population
[16] = Human immunodeficiency virus 1, THP-1, read-out: EC50 [95% CI], THP1 PMA+, Vpx+
[17] = Human immunodeficiency virus 1, THP-1, read-out: EC50 [95% CI], THP1 PMA+, Vpx−
[18] = Human immunodeficiency virus 1, THP-1, read-out: EC50 [95% CI], THP1 PMA−, Vpx+
[19] = Human immunodeficiency virus 1, THP-1, read-out: EC50 [95% CI], THP1 PMA−, Vpx−

Compound | EC50 (HIV-1-GFP [1]; [8]) [µM] | EC50 (HIV-1-GFP [1]; [9]) [µM] | EC50 (HIV-1-GFP [1]; [10]) [µM] | EC50 (HIV-1-GFP [1]; [11]) [µM] | SI, selectivity index CC50/EC50 (HIV-1-GFP [1]; THP-1 PMA+) | EC50 (HIV-1-GFP [2]; [12]) [µM] | EC50 (HIV-1-GFP [2]; [13]) [µM] | EC50 (HIV-1-GFP [2]; [14]) [µM] | EC50 (HIV-1-GFP [2]; [15]) [µM] | EC50 [95% CI] (HIV-1-GFP [2]; HD206/7AA+ population) | EC50 [95% CI] (HIV-1-GFP [2]; SAMHD1+ population) | EC50 (HIV-1-GFP [3]; [16]) [µM] | EC50 (HIV-1-GFP [3]; [17]) [µM] | EC50 (HIV-1-GFP [3]; [18]) [µM] | EC50 (HIV-1-GFP [3]; [19]) [µM] | Fold (EC50 Vpx+ vs Vpx−) (HIV-1-GFP [3]) [fold] | CC50 at 48 h [4] [µM] | CC50 at 48 h [5] [µM] | CC50 at 48 h [6] [µM] | CC50 (U937 cells) [µM] | further results
Nc1nc2c(ncn2COCCO)c(=O)[nH]1 [ACV, Acycloguanosine] | 0.657 | > 200 | 52.2 | > 200 | > 304 | 50.9 | 0.652 | > 200 | > 200 | no anti-HIV-1 activity | no anti-HIV-1 activity | 29.6 | 1.08 | > 200 | > 200 | 27 | > 200 | > 200 | > 200 | > 200 | SI, selectivity index CC50/EC50 (HIV-1-GFP [1]; U937 PMA+): > 4; Fold (EC50 HD206/7AA vs SAMHD1) (HIV-1-GFP [2]; U937 PMA+): 78 fold; CC50 at 48 h [7]: > 200 µM; CC50 (THP-1 cells): > 200 µM
Nc1nc(O)c2ncn(COC(CO)CO)c2n1 [GCV, 2′-Nor-2′-deoxyguanosine] | 0.367 | > 200 | > 200 | > 200 | > 545 | > 200 | 0.876 | > 200 | > 200 | no anti-HIV-1 activity | no anti-HIV-1 activity | > 200 | 0.632 | > 200 | > 200 | >316 | > 200 | > 200 | > 200 | > 200 | CC50 at 48 h [7]: > 200 µM; CC50 (THP-1 cells): > 200 µM
